# Data: ChEMBL document CHEMBL4138075, “Concise synthesis and antiproliferative activity evaluation of ellipticine quinone and its analogs” (Eur J Med Chem, 2017)
# How the values were obtained:
# HCT-116 = assay: Antiproliferative activity against human HCT116 cells measured after 48 hrs by MTT assay; assay type: functional, cell-based; details: HCT-116, 48 h
# HL-60 = assay: Antiproliferative activity against human HL60 cells measured after 48 hrs by WST1 assay; assay type: functional, cell-based; details: HL-60, 48 h
IC50 (HCT-116),IC50 (HL-60),Structure (SMILES)
0.877 µM,3.29 µM,O=C1c2ccncc2C(=O)c2c1[nH]c1ccccc21
4.62 µM,> 10 µM,O=C1c2ccncc2C(=O)c2c1[nH]c1cc(C(F)(F)F)ccc21
0.187 µM,1.35 µM,O=C1c2ccncc2C(=O)c2c1[nH]c1ccc([N+](=O)[O-])cc21
1.38 µM,3.88 µM,O=C1c2ccncc2C(=O)c2c1[nH]c1ccc(Cl)cc21
3.14 µM,9.01 µM,COc1ccc2c3c([nH]c2c1)C(=O)c1ccncc1C3=O
4.07 µM,> 10 µM,O=C1c2ccncc2C(=O)c2c1[nH]c1cc(Cl)ccc21
1.64 µM,5.08 µM,O=C1c2ccncc2C(=O)c2c1[nH]c1ccc(C(F)(F)F)cc21
0.849 µM,4.27 µM,Cc1ccc2[nH]c3c(c2c1)C(=O)c1cnccc1C3=O
1.25 µM,4.43 µM,O=C1c2ccncc2C(=O)c2c1[nH]c1cc([N+](=O)[O-])ccc21
5.79 µM,> 10 µM,Cc1ccc2c3c([nH]c2c1)C(=O)c1ccncc1C3=O
3.72 µM,7.49 µM,COc1cc2[nH]c3c(c2cc1OC)C(=O)c1cnccc1C3=O
1.13 µM,4.5 µM,O=C1c2ccncc2C(=O)c2c1[nH]c1ccc(F)cc21
1.6 µM,4.5 µM,O=C1c2ccncc2C(=O)c2c1[nH]c1cc(F)ccc21
5.43 µM,> 10 µM,COc1ccc2[nH]c3c(c2c1)C(=O)c1cnccc1C3=O

Structure (SMILES),IC50 (HCT-116),IC50 (HL-60)
CC[C@@]1(O)C(=O)OCc2c1cc1n(c2=O)Cc2cc3ccccc3nc2-1 [CAMPTOTHECIN],0.159 µM,0.019 µM
